According to PMC6154339, “Synthesis, Characterization, Antimicrobial and Antiproliferative Activity Evaluation of Cu(II), Co(II), Zn(II), Ni(II) and Pt(II) Complexes with Isoniazid-Derived Compound” (Molecules : A Journal of Synthetic Chemistry and Natural …, 2017):
Converted amounts (≈) assume the structure as drawn. Like-named read-outs stand apart in the source and are kept apart here.

What was measured:
in vivo = conditions: Daphnia magna
[1] = Solubility in compendial aqueous media; assay type: physicochemical; conditions: 37 °C, mean ± standard deviation, n = 3; for solubility at 30 min: kinetic from dmso stock; for solubility in compendial media: 30 min
Protocol: Solubility assessment was conducted in compendial aqueous solutions prepared according to United States Pharmacopoeia USP39/NF34): hydrochloric acid 0.1 N pH 1.2, acetate buffer pH 4.5 and phosphate buffer 6.8. These buffer systems are routinely used for screening of drug dissolution testing and they simulate the pH values of proximal gastrointestinal regions. The standard samples were prepared by diluting the stock solution of 80 µg/mL in dimethyl sulfoxide (with 0.2% pyridine, v/v) with corresponding media. The reagents were of analytical grade and used as received.
The assay was performed using a SpectraMax Plus 84 Plate reader reader (Sunnyvale, CA, USA), Molecular Devices LLC (US), equiped with SoftMax software version 6.4.2 (Sunnyvale, CA, USA). Separate plates were loaded with standard solutions in nine concentrations (0.2 to 80 µg/mL). For evaluation of the aqueous solubility, the samples were prepared in triplicate by adding 10 µL of the stock solution to the wells loaded with 190 µL of each buffer, using MultiScreen HTS plates (PCF, code MSSLBPC, Merck Millipore, Darmstadt, Germany). After 30 minutes of incubation at 37 ± 0.5 °C under agitation (250 rpm, IKA KS 4000 ic control, IKA, Staufen, Germany), the plates were filtrated under vacuum using a Vac-Man 96 Vacuum manifold (Promega Corporation, Madison, WI, USA). The solutions were collected in V-bottom polypropylene 96-well microplates (Greiner Bio-One, Kremsmünster, Austria). Volumes of 100 µL were transferred to UV-Star 96-well microplate with flat bottom (Chimney well, Grained Bio-One) and diluted by addition of 100 µL of the corresponding medium. The absorbance corresponding to each well was determined at fixed wavelengths: 280, 300, 320, 340, 360 and 800 nm. The reduced value of absorbance, calculated by the sum of the values recorded at the six wavelengths, were used for the calibration curve and subsequent determination of concentration in each solubility sample.

[2] = system: MCF-7 human breast cancer cell line; assay: Alamar blue cell viability assay; assay type: cell-based; conditions: 48 h treatment, relative to untreated control; for Viability %: 10 µM
Protocol: (§1) Compounds HL, 1, 5, 6 and 8 were dissolved in dimethyl sulfoxide (DMSO; Sigma-Aldrich, Ayrshire, UK) and stored at 2–8 °C. Compounds 2, 3, 4 and 7 were dissolved in pyridine (Fluka, Munich, Germany). A stock solution of 10 mM in the proper solvents was prepared; as for the final concentration (10 µM), successive dilution of the stock solution with culture medium was made.
(§2) The breast cancer cell lines were cultured as follow: MCF-7 human breast cancer cell line (ATCC, Rockville, MD, USA) was cultured in EMEM (Sigma Aldrich, Munich, Germany) supplemented with 10% FCS (fetal bovine serum, PromoCell, Heidelberg, Germany), 1% penicillin-streptomycin (Pen/Strep, 10,000 IU/mL; PromoCell, Heidelberg, Germany), 1% nonessential amino acids and 1% glutamine (PromoCell, Heidelberg, Germany). SKBR-3 human breast cancer cell line was cultured in McCoy’s 5a Medium Modified (Sigma Aldrich, Munich, Germany) supplemented with 10% FCS (fetal bovine serum, PromoCell, Heidelberg, Germany), 1% penicillin-streptomycin (Pen/Strep, 10,000 IU/mL; PromoCell, Heidelberg, Germany). A375 human melanoma cell line was cultured in DMEM containing 15% FCS (fetal bovine serum, PromoCell, Heidelberg, Germany) and 1% penicillin-streptomycin (Pen/Strep, 10,000 IU/mL; PromoCell, Heidelberg, Germany). Cells were maintained at an atmosphere of 5% CO2 at 37 °C. NCI-H1573 lung adenocarcinoma cell line was cultured in RPMI-1640 Medium (ATCC, Rockville, MD, USA) supplemented with 10% FCS (fetal bovine serum, PromoCell, Heidelberg, Germany), 1% penicillin-streptomycin (Pen/Strep, 10,000 IU/mL; PromoCell, Heidelberg, Germany).
(§3) All tested cell lines were seeded onto a 96-well microplate ([…]) and left overnight to attach to the bottom of the well. After 24 h, the amount of 150 μL of the tested substances dissolved into the culture medium was added and cells were incubated for 48 h. After the incubation period, a volume of 15 μL of the Alamar blue (BioSource, Camarillo, CA, USA) solution was added. After another 10 h of incubation at 37 °C, the samples were spectrophotometrically analyzed using a microplate reader. The wave lengths used were 570 nm and 600 nm, respectively. Wells with untreated cells were used as controls. The highest concentration of DMSO and pyridine (0.1%) used to prepare stock solutions was also tested, in order to identify the solvent activity. All measurements were performed in triplicate and data were presented as mean ± standard deviation.

[3] = system: SKBR-3 human breast cancer cell line; assay: Alamar blue cell viability assay; assay type: cell-based; conditions: relative to untreated control; for Viability %: 48 h treatment, 10 µM
Protocol: as §1, §2, §3

[4] = system: NCI-H1573 lung adenocarcinoma cell line; assay: Alamar blue cell viability assay; assay type: cell-based; conditions: 48 h treatment, relative to untreated control; for Viability %: 10 µM
Protocol: as §1, §2, §3

[5] = system: A375 human melanoma cell line; assay: Alamar blue cell viability assay; assay type: cell-based; conditions: relative to untreated control; for Viability %: 48 h treatment, 10 µM
Protocol: as §1, §2, §3

Candida albicans = assay: Antifungal (antimycotic) activity, liquid Sabouraud medium (MIC/MBC); assay type: cell-based; conditions: C. albicans
Source text: (§4) All synthesized complexes and the ligand were screened for their in vitro antibacterial activity against Gram-positive bacteria (Staphylococcus aureus), Gram-negative bacteria (Escherichia coli, Klebsiella pneumoniae) and antifungal activity (Candida albicans) strains using the paper disc diffusion technique (for the qualitative determination) and the serial dilutions in liquid broth method (for determination of MIC). Furacillinum and nystatine were used as standard drugs.
Antimycotic properties of the complexes were investigated in vitro on laboratory stem Candida albicans. The activity has been determined in a liquid Sabouraud nutritive environment (pH 6.8). The inoculates were prepared from fungi stems which were harvested over 3–7 days. Their concentration in suspension is (2–4) × 10^6 colonies form unities in milliliter. Sowings for levures and micelles were incubated at 37 °C during 7 and 14 days, respectively.

[6] = system: Staphylococcus aureus, ATCC 25923; assay: Antibacterial activity, serial dilutions in liquid broth (MIC/MBC); assay type: cell-based; conditions: S. aureus (G +)
Source text: as §4
(§5) The antibacterial activity of complexes and also of their prototype furacilin has been determined under liquid nutritive environment (2% of peptonate bullion (pH 7.0)) using the successive dilutions method. Escherichia coli, Klebsiella pneumoniae, and Staphylococcus aureus stems were used as reference culture for the in vitro experiment. The dissolution of studied substances in dimethylformamide, microorganism cultivation, suspension obtaining, determination of minimal inhibition concentration (MIC) and minimal bactericide concentration (MBC) have been carried out according to the method previously reported.

[7] = system: Escherichia coli, ATCC 25922; assay: as above; assay type: cell-based; conditions: E. coli (G −)
Source text: as §4, §5

[8] = system: Klebsiella pneumoniae, ATCC 31,488; assay: as above; assay type: cell-based; conditions: K. pneumoniae (G −)
Source text: as §4, §5

[9] = Qualitative solubility in organic solvents; assay type: physicochemical
[10] = Hydrochloric Acid 0.1 N (pH = 1.2)

Q: For `COc1cccc(/C=N/NC(=O)c2ccncc2)c1O` [HL, N-isonicotinoyl-N′-(3-metoxy-2 hydroxybenzaldehyde)-hydrazone], which LC50 (in vivo; LC50, incubation period 24 h) is on record?
A: 53.1 µM

Q: What about the LC50 (in vivo; LC50, incubation period 48 h) of the same compound?
A: 52.6 µM

Q: What about the solubility at 30 min ([1]; aqueous buffer, Acetate Buffer (pH = 4.5)) of the same compound?
A: 3.49 ± 0.41 µg/mL (≈ 12.9 µM)

Q: And the solubility at 30 min ([1]; aqueous buffer, Phosphate Buffer (pH = 6.8))?
A: 0.25 ± 0.02 µg/mL (≈ 0.922 µM)

Q: What about the solubility at 30 min ([1]; simulated gastric fluid, Hydrochloric Acid 0.1 N (pH = 1.2)) of the same compound?
A: 2.02 ± 0.02 µg/mL (≈ 7.45 µM)

Q: What about the viability at 10 µM ([2]; Homo sapiens, MCF7, 48 h) of the same compound?
A: 21.5%

Q: What about the viability at 10 µM ([3]; Homo sapiens, SK-BR-3, 48 h treatment) of the same compound?
A: 76.3%

Q: What about the viability at 10 µM ([4]; Homo sapiens, NCI-H1573, 48 h) of the same compound?
A: 29.2%

Q: And the viability at 10 µM ([5]; Homo sapiens, A-375, 48 h treatment)?
A: 82.4%

Q: Which MBC (Candida albicans) does the source give for `CC(=O)[O-].COc1cccc(C=NNC(=O)c2ccncc2)c1[O-].[Cu+2]` [complex 2, [Cu(L)(CH3COO)]] here?
A: 250 µg/mL

Q: And the MIC (Candida albicans)?
A: 125 µg/mL

Q: And the MBC [6]?
A: 0.015 µg/mL

Q: And the MIC [6]?
A: 0.015 µg/mL

Q: What about the MBC [7] of the same compound?
A: 500 µg/mL

Q: And the MIC [7]?
A: 500 µg/mL

Q: What about the MBC [8] of the same compound?
A: 500 µg/mL

Q: And the MIC [8]?
A: 500 µg/mL

Q: And the “solubility in compendial media” value ([1]; Acetate Buffer (pH = 4.5))?
A: 1.27 ± 0.06 µg/mL

Q: And the “solubility in compendial media” value [1, 10]?
A: 1.75 ± 0.54 µg/mL

Q: What about the “solubility in compendial media” value ([1]; Phosphate Buffer (pH = 6.8)) of the same compound?
A: <0.2 µg/mL

Q: What about the LC50 (Daphnia magna; incubation period 24 h) of the same compound?
A: 69.6 µM

Q: And the LC50 (Daphnia magna; incubation period 48 h)?
A: 13.1 µM

Q: And the Viability % [2]?
A: 2.10%

Q: What about the Viability % [3] of the same compound?
A: 6.88%

Q: What about the Viability % [4] of the same compound?
A: 7.22%

Q: And the Viability % [5]?
A: 0.73%

Q: What about the “solubility in organic solvents (qualitative)” value [9] of the same compound?
A: soluble in pyridine and is partially soluble in ethanol, methanol, acetonitrile, acetone, DMF and DMSO

Q: For `COc1cccc(C=NNC(=O)c2ccncc2)c1[O-].COc1cccc(C=NNC(=O)c2ccncc2)c1[O-].[Co+2]` [complex 5, [Co(L)2]], which MBC (Candida albicans) is on record?
A: 250 µg/mL

Q: And the MIC (Candida albicans)?
A: 125 µg/mL

Q: And the MBC [6]?
A: 0.7 µg/mL

Q: What about the MIC [6] of the same compound?
A: 0.7 µg/mL

Q: And the MBC [7]?
A: 500 µg/mL

Q: What about the MIC [7] of the same compound?
A: 250 µg/mL

Q: And the MBC [8]?
A: 500 µg/mL

Q: What about the MIC [8] of the same compound?
A: 500 µg/mL

Q: And the “solubility in compendial media” value ([1]; Acetate Buffer (pH = 4.5))?
A: 1.62 ± 0.72 µg/mL

Q: What about the “solubility in compendial media” value [1, 10] of the same compound?
A: <0.2 µg/mL

Q: What about the “solubility in compendial media” value ([1]; Phosphate Buffer (pH = 6.8)) of the same compound?
A: <0.2 µg/mL

Q: What about the LC50 (Daphnia magna; incubation period 24 h) of the same compound?
A: 278 µM

Q: And the LC50 (Daphnia magna; incubation period 48 h)?
A: 2.38 µM

Q: And the Viability % [2]?
A: 55.61%

Q: And the Viability % [3]?
A: 76.68%

Q: What about the Viability % [4] of the same compound?
A: 89.79%

Q: And the Viability % [5]?
A: 88.96%

Q: What about the “solubility in organic solvents (qualitative)” value [9] of the same compound?
A: soluble in pyridine, DMF and DMSO, and is partially soluble in ethanol, methanol, acetonitrile, acetone

Q: What does the source list for `COc1cccc(C=NNC(=O)c2ccncc2)c1[O-].O.O=[N+]([O-])[O-].[Cu+2]` [complex 3, [Cu(L)(NO3)]·H2O]?
A: MBC (Candida albicans): 3 µg/mL; MIC (Candida albicans): 1.5 µg/mL; MBC [6]: 0.15 µg/mL; MIC [6]: 0.07 µg/mL; MBC [7]: 500 µg/mL; MIC [7]: 500 µg/mL; MBC [8]: 500 µg/mL; MIC [8]: 500 µg/mL; solubility in compendial media ([1]; Acetate Buffer (pH = 4.5)): 1.69 ± 0.18 µg/mL; solubility in compendial media [1, 10]: 0.92 ± 0.11 µg/mL; solubility in compendial media ([1]; Phosphate Buffer (pH = 6.8)): <0.2 µg/mL; LC50 (Daphnia magna; incubation period 24 h): 317 µM; LC50 (Daphnia magna; incubation period 48 h): 5.61 µM; Viability % [2]: 2.44%; Viability % [3]: 62.65%; Viability % [4]: 12.14%; Viability % [5]: 1.59%; solubility in organic solvents (qualitative) [9]: soluble in pyridine and is partially soluble in ethanol, methanol, acetonitrile, acetone, DMF and DMSO
